Patent EP0199238A1, “1,4-Dihydropyridine derivatives, process for their preparation and their use in medicaments” (BAYER AG, priority 1985, dated 1986)

Tested on: SH-Ratte
Assay: Blood pressure measurement in conscious rats (tail cuff, oral administration)
Type: in vivo
Conditions: Rattus norvegicus, oral by gavage, lowest dose that still gives at least 15 mm Hg fall in systolic blood pressure, read-out: Grenzdosis der antihypertensiven Wirkung
Experimental: Blutdruckmessung bei wachen Ratten
Meßmethode: In Anlehnung an das von Breuninger beschriebene Verfahren wird der Blutdruck am Schwanz der nicht narkotisierten Ratte unblutig mittels aufblasbarer Gummimanschette und Infraton-Pulsabnehmer D nach Boucke-Brecht gemessen. Die Tiere befinden sich während des ganzen Versuches, einschlieBlich einer 2-stündigen Vorperiode, einzeln in einem Wassermantel umgeben, auf ca. 30°C temperierten Kunststoffröhren. Die aufblasbare Gummimanschette sitzt an der Schwanzwurzel, der Pulsabnehmer 2-5 cm distal davon. Zur Erzielung gleichmäßiger Meßresultate ist für die wiederholten Messungen die Meßstelle am Schwanz mit Tusche markiert.
Der gesamte Meßvorgang wird auf einem 2-Kanal-Direktschreiber oder einem Speicher-Oszillografen (Tektronix) registriert, im 1. Kanal die Pulsationen der Schwanzarterie, im 2. Kanal die Impulse eines Druckmarkengebers, der den jeweils in der Manschette herrschenden Druck anzeigt. Gemessen wird bei abfallendem Manschettendruck. Als Meßwert wird der in der Manschette herrschende Druck bei Wiederauftreten der Pulsationen benutzt. Er entspricht dem systolischen Blutdruck im Rattenschwanz. […]
Bei der quantitativen Bestimmung von Dosis-Wirkungskurven wird für jedes Tier die Wirkung als mittlere prozentuale Blutdrucksenkung gegenüber dem Ausgangsblutdruck, gemittelt über den Versuchszeitraum von 6 Stunden, angegeben. […]

COC(=O)C1=C(C)NC(C)=C(C(=O)OCC(C)(C)O)C1c1ccccc1[N+](=O)[O-] (stereo not shown) [Beispiel 3, 1,4-Dihydro-2,6-dimethyl-4-(2-nitrophenyl)-pyridin-3,5-dicarbonsäure-(2-hydroxy-2-methyl-propyl)-methyl-ester]
minimal effective dose: 1 mg/kg
